{"source": "patent US6472369B1", "about": "“Anticancer compounds and methods” (The Regents of the University of Michigan, priority 1996, dated 2002)", "key": {"[1]": {"assay": "Clotting of peptide-treated blood in vivo", "conditions": "in vivo observation", "from_the_text": "In addition to using the PHSRN (SEQ ID NO:1) antagonists described above as anti-invasion chemotherapeutics, it is also contemplated that these antagonists be used as anti-thrombotics."}, "MatLyLu (MLL) tumors": {"test_system": "MatLyLu (MLL) tumors", "assay": "MLL prostate tumor growth and metastasis in rats, treatment begun with cell injection (Example 12)", "assay_type": "in vivo, Copenhagen rats", "method": "In the first part of this example, four Copenhagen rats were injected with 500,000 MatLyLu (MLL) cells subcutaneously in the thigh. Two of these rats also received 1 mg of the PHSCN (SEQ ID NO:86) peptide along with the injected MLL cells, and thereafter received 1 mg of the PHSCN (SEQ ID NO:86) peptide injected in their tail vein three time per week for two weeks. The other two injected rats were left untreated. Tumor sizes were measured with calipers on day 14, and the tumors in the untreated rats were removed. […] It is possible that the ability of the PHSCN (SEQ ID NO:86) peptide to slow tumor growth is due to its inhibition of tumor invasion by normal endothelial cells, an anti-angiogenic effect.\nTwo weeks after the size of the tumors were measured, the rats were sacrificed and the mean number of lung metastases was determined at 10-fold magnification. The mean number of lung metastases in the untreated mice (MLL only) was nearly 35 in spite of the fact that the initial prostate tumors had been removed when their size was measured. The mean number of lung metastases in the treated mice (MLL +PHSCN (SEQ ID NO:86)) was less than 5, even though the initial prostate tumors were never removed because they were too small. […] In this manner, the PHSCN (SEQ ID NO:86) peptide provides effective in vivo therapy for cancer by preventing the lethal effects of tumor cell growth and metastasis."}, "[2]": {"test_system": "metastatic SUM-52 PE breast cancer cells", "assay": "SU-ECM invasion assay, SUM-52 PE breast cancer cells", "assay_type": "cell-based, human", "conditions": "SUM-52 PE; for inhibition of PHSRN-induced invasion of SU-ECM: serum free medium, 100 ng per ml PHSRN, FIG. 5B; for inhibition of serum-induced invasion of SU-ECM: FIG. 5A", "method": "Human breast carcinoma cell lines SUM 52 PE and SUM 44 PE were originally cultured from the pleural effusions of patients with metastatic breast cancer; and SUM 102 was cultured from a primary, microinvasive breast carcinoma (Ethier, S. P., Mahack, M. L., Gullick, W. J., Frank, T. S., and Weber, B. L. Differential isolation of normal luminal mammary epithelial cells and breast cancer cells from primary and metastatic sites using selective media. Cancer Res. 53: 627-635).\n(§1) Adult Strongylocentrotus purpuratus sea urchins were obtained from Pacific BioMarine, and their embryos were cultured to the early pluteus stage in artificial sea water at 15° C. SU-ECM were prepared from them by treatment with nonionic detergent and strerilized by dilution in the appropriate media.\nCells were harvested by rinsing in Hanks' balanced salt solution, followed by brief treatment with 0.25% trypsin, 0.02% EDTA, and pelleting and resuspension in the appropriate medium with or without 5% FCS at a density of about 50,000 cells per ml. When appropriate, purified bovine plasma fibronectin (Sigma), purified 120 kDa chymotryptic fragment (Gibco BRL), PHSRN (SEQ ID NO:1) or PHSCN (SEQ ID NO:86) peptides (synthesized at the Biomedical Research Core Facilities of the University of Michigan), or GRGDSP (SEQ ID NO:83) or GRGESP (SEQ ID NO:84) peptides (Gibco BRL) were added to the resuspended cells prior to placement of the cells on SU-ECM. In each well of a plate used for an invasion assay, SU-ECM were placed in 0.5 ml of the appropriate medium, and 0.5 ml of the resuspended cells dropped on their exterior surfaces. Invasion assays were incubated 1 to 16 hours prior to assay. If some circumstances, invasion assays were fixed in phosphate-buffered saline (PBS) with 2% formaldehyde for 5 minutes at room temperature, then rinsed into PBS.\n(§2) Invasion assays were coded and scored blindly by microscopic examination under phase contrast at 200- and 400-fold magnification. Each cell contacting an SU-ECM was scored for its position relative to the exterior or interior surfaces. A cell was judged to have invaded if it was located on an interior surface below the focal plane passing through the upper surface of the SU-ECM, but above the focal plane passing through its lower surface. The minimum viability of the cells in each assay was always ascertained at the time of assay by determining the fraction of spread, adherent cells on the bottom of each well scored.\n(§3) An invasion frequency is defined as the fraction of cells in contact with basement membranes which were located in their interiors at the time of assay. Thus, an invasion frequency of 1 denotes invasion by 100% of the cells in contact with basement membranes. Invasion frequencies were determined multiple times for each cell type assayed. For each type of cell assayed the mean and standard deviation of the invasion frequencies were calculated.\nThe method of Example 4 is employed, with the addition of varying concentrations of the PHSCN (SEQ ID NO:86) peptide.\nThus, the procedure in Example 4 provides a method for determining the inhibitory potential of the PHSCN (SEQ ID NO:86) peptide by comparing the number of cell invasions in the presence of the PHSCN (SEQ ID NO:86) peptide, with the number of cell invasions in the absence of the PHSCN (SEQ ID NO:86) peptide."}, "[3]": {"test_system": "metastatic DU-145 prostate cancer cells", "assay": "SU-ECM invasion assay, DU-145 prostate cancer cells", "assay_type": "cell-based, human", "conditions": "for inhibition of serum-induced invasion of SU-ECM: DU-145, 10% serum, FIG. 6A; for inhibition of PHSRN-induced invasion of SU-ECM: DU-145, serum-free medium, 100 ng per ml PHSRN, FIG. 6B"}, "[4]": {"test_system": "normal human mammary epithelial cells", "assay": "SU-ECM invasion assay, normal human mammary epithelial cells", "assay_type": "cell-based", "conditions": "10% FCS, 100 ng per ml PHSRN, FIG. 5B", "method": "as §1, with “media. […]” for “media.”\nas §2, with “A cell was judged to have invaded if it was located on an interior surface below the focal plane passing through the upper surface of the SU-ECM, but above the focal plane passing through its lower surface.” left out\nas §3, with “Thus, an invasion frequency of 1 denotes invasion by 100% of the cells in contact with basement membranes.” left out, “calculated. […]” for “calculated.”"}}, "data": [{"substance": "Pro-His-Ser-Cys-Asn (PHSCN)", "values": [{"measurement": "clotting of peptide-treated blood", "setting": "[1]", "result": "clot very slowly"}, {"measurement": "growth of injected MLL tumors (tumor size, calipers)", "setting": "MatLyLu (MLL) tumors; day 14, 1 mg with cells, then 1 mg tail vein three times per week for two weeks, FIG. 9A", "result": "significantly slows the growth"}, {"measurement": "mean number of lung metastases", "setting": "MatLyLu (MLL) tumors; two weeks after tumor measurement, 10-fold magnification, primary tumors not removed, FIG. 9B", "result": "less than 5"}, {"measurement": "inhibition of PHSRN-induced invasion of SU-ECM", "setting": "[2]; higher concentrations", "result": "almost complete inhibition"}, {"measurement": "inhibition of PHSRN-induced invasion of SU-ECM", "setting": "[2]; low concentrations", "result": "substantial inhibitory affect"}, {"measurement": "inhibition of serum-induced invasion of SU-ECM", "setting": "[2]; relatively high PHSCN concentrations", "result": "complete inhibition"}, {"measurement": "inhibition of serum-induced invasion of SU-ECM", "setting": "[2]; relatively low PHSCN concentrations", "result": "substantial inhibitory affect"}, {"measurement": "inhibition of serum-induced invasion of SU-ECM", "setting": "[3]; relatively high concentrations", "result": "complete inhibition"}, {"measurement": "inhibition of serum-induced invasion of SU-ECM", "setting": "[3]; relatively low concentrations", "result": "substantial inhibitory affect"}, {"measurement": "inhibition of PHSRN-induced invasion of SU-ECM", "setting": "[3]; higher concentrations", "result": "almost complete inhibition"}, {"measurement": "inhibition of PHSRN-induced invasion of SU-ECM", "setting": "[3]; low concentrations", "result": "substantial inhibitory affect"}, {"measurement": "inhibition of PHSRN-induced invasion of SU-ECM", "setting": "[4]; higher concentrations", "result": "almost complete inhibition"}, {"measurement": "inhibition of PHSRN-induced invasion of SU-ECM", "setting": "[4]; low concentrations", "result": "substantial inhibitory affect"}]}]}
